# Experimental data published in patent US8916376B2, “Metal-binding peptides” (priority 2007, dated 2014).
# Experiments:
# [1] = test system: E. coli BLR(DE3) cells; assay: Multi-step selection of E. coli clone library under toxic agents; apparent MIC; type: cell-based; settings: for concentration above which no bacterial growth was observed: 24 hours selection cycle, FIG. 2
# Excerpt: The pCRRL1 library was transformed into E. coli BLR(DE3) cells, which carry a T7 RNA polymerase gene under control of IPTG-regulated lacUV5 promoter. The number of individual clones was estimated to be ˜10^5. The clone library was allowed to grow for 4 hrs in order to obtain several replicates of it, and then split into parts intended for parallel evolution experiments using different toxic agents. Expression of the randomized ORF was induced by IPTG, and the multi-step selection experiment was started by adding appropriate amounts of NiCl2, AgNO3, or K2TeO3 to the cell cultures, as shown in FIG. 2 with the selection of the E. coli clones resistant to NiCl2 (a), AgNO3 (b), and K2TeO3 (c). Large filled circles represent bacterial cultures successfully growing at indicated concentrations of each toxic agent. […] Black arrows point to the most resistant bacterial cultures, from which individual clones have been isolated for further studies of their toxicity tolerance. Grey arrow marks the culture, which was used as a non-adapted control in tests of the bacterial resistance towards nickel, silver, and tellurite. […] A concentration gradient of the toxic agents was chosen to cover a range within which an MIC was expected to be found. Thus, at every step the selective pressure was adjusted depending on the achieved level of the toxicity tolerance to keep the evolving bacterial populations under subinhibitory conditions. Substantial increase in bacterial resistance to Ni^2+, Ag^+, and TeO3^2− was observed during four, five, and seven consecutive selection cycles, respectively. After that, no further change in toxicity tolerance was detected. During the selection procedure, the apparent MIC values increased from 4 to 10 mM NiCl2, from 0.03 to 0.90 mM AgNO3, and from 0.7 to 20 μM K2TeO3. Eight clones were isolated from each of the three evolved resistant populations by plating. These were tested for the dependence of growth on mini-gene expression by measuring OD600 after 24 hrs of cultivation in the presence of corresponding toxic agent, with and without IPTG. […] All eight Ni^2+-resistant clones harbored the same plasmid (designated as pCRRL1-N94-01) with a mini-gene variant coding for the peptide […] (SEQ ID NO 1), a structural model of which is shown in FIG. 2a. In addition, a 9-bp deletion was detected in the spacer region between the ORF and the transcription terminator. However, since no important element of the mini-gene operon was located there, the deletion was unlikely to affect the peptide expression. […] All TeO3^2−-resistant clones carried a version of plasmid pCRRL1-T507-01 that has a 225-bp deletion of the whole mini-gene transcriptional unit together with adjacent downstream sequence. This deletion obviously abolishes T7 RNA polymerase activity on the plasmid, making it irresponsive to IPTG induction.
# [2] = test system: E. coli BLR(DE3) cells; assay: Dependence of growth under toxic agent on mini-gene expression (OD600, with and without IPTG); type: cell-based; settings: for effect of IPTG-induced mini-gene expression on growth (OD600): resistant clones carrying the mini-gene, 24 hrs cultivation with the corresponding toxic agent, with and without IPTG
# Excerpt: The pCRRL1 library was transformed into E. coli BLR(DE3) cells, which carry a T7 RNA polymerase gene under control of IPTG-regulated lacUV5 promoter. The number of individual clones was estimated to be ˜10^5. The clone library was allowed to grow for 4 hrs in order to obtain several replicates of it, and then split into parts intended for parallel evolution experiments using different toxic agents. Expression of the randomized ORF was induced by IPTG, and the multi-step selection experiment was started by adding appropriate amounts of NiCl2, AgNO3, or K2TeO3 to the cell cultures, as shown in FIG. 2 with the selection of the E. coli clones resistant to NiCl2 (a), AgNO3 (b), and K2TeO3 (c). Large filled circles represent bacterial cultures successfully growing at indicated concentrations of each toxic agent. […] Black arrows point to the most resistant bacterial cultures, from which individual clones have been isolated for further studies of their toxicity tolerance. Grey arrow marks the culture, which was used as a non-adapted control in tests of the bacterial resistance towards nickel, silver, and tellurite. […] A concentration gradient of the toxic agents was chosen to cover a range within which an MIC was expected to be found. […] After that, no further change in toxicity tolerance was detected. […] In addition, a 9-bp deletion was detected in the spacer region between the ORF and the transcription terminator. […]
# The existence of a positive correlation between the level of mini-gene expression and the extent of toxicity tolerance would strongly argue in favor of a role for the mini-gene in the mechanism of stress resistance of the evolved clones. […] Comparison of the bacterial growth parameters measured in the presence and absence of IPTG made it possible to distinguish the specific effect of mini-gene expression on culture survival and propagation from the basal resistance to the hostile environment acquired through adaptive genomic mutations. […]
# [3] = E. coli BLR(DE3) pCRRL1 library, start of the selection procedure
# [4] = evolved resistant population, end of the selection procedure
Compound,concentration above which no bacterial growth was observed [1],"apparent MIC [1, 3] [mM]","apparent MIC [1, 4] [mM]",effect of IPTG-induced mini-gene expression on growth (OD600) [2],"concentration at which culture was able to grow ([2]; non-adapted control culture, insensitive to IPTG)"
O=[N+]([O-])[O-].[Ag+] [AgNO3],above 0.9 mM,0.03,0.90,–,–
"MSHAYFVCNRCDSSNHSAHE [SEQ ID NO 1, 20-mer peptide encoded by the mini-gene of plasmid pCRRL1-N94-01 in Ni2+-resistant E. coli clones]",–,–,–,Significant IPTG-induced growth improvement,–
"MSHATATPASRRRLPLRS [SEQ ID NO 2, 18-mer peptide encoded by the mini-gene of plasmid pCRRL1-A226-01 in Ag+-resistant E. coli clones]",–,–,–,not affected by IPTG,–
O=[Te]([O-])[O-].[K+].[K+] [K2TeO3],above 18 mM,0.0007,0.02,–,–
[Cl][Ni][Cl] [NiCl2],–,4,10,–,below 4 mM
